Consider six compounds from ChEMBL document CHEMBL5500366, “Discovery of the small molecular inhibitors against sclerostin loop3 as potential anti-osteoporosis agents by structural based virtual screening and molecular design” (Eur J Med Chem, 2024).

Data set [1] deals with T1, Sclerostin (Homo sapiens, UniProt Q9BQB4).
T1 sequence (Q9BQB4 whole entry): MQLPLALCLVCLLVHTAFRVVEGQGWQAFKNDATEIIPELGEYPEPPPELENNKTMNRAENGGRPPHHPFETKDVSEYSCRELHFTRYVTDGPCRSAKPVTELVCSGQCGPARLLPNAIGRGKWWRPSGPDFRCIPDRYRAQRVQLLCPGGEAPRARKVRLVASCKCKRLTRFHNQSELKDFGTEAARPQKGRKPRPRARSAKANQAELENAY
Briefly: Binding affinity to SOST (unknown origin) by SPR analysis. For orientation: Surface plasmon resonance follows binding to a sensor surface in real time, without labels.

In data set [2] the target is T1, Sclerostin. In words: Binding affinity to SOST loop2 (unknown origin) by SPR analysis.
Data set [3] in a line: Cmax in sc dosed Sprague-Dawley rat. The format is ADME, organism-based. The following applies: in vivo.
The species entered for a further data set is Homo sapiens. In words: Binding affinity to FABP (unknown origin).
In another data set the target is Albumin (Homo sapiens, UniProt P02768). Briefly: Binding affinity to human serum albumin. The format is ADME. The following applies: isolated protein.
Chain of Albumin (P02768 whole entry): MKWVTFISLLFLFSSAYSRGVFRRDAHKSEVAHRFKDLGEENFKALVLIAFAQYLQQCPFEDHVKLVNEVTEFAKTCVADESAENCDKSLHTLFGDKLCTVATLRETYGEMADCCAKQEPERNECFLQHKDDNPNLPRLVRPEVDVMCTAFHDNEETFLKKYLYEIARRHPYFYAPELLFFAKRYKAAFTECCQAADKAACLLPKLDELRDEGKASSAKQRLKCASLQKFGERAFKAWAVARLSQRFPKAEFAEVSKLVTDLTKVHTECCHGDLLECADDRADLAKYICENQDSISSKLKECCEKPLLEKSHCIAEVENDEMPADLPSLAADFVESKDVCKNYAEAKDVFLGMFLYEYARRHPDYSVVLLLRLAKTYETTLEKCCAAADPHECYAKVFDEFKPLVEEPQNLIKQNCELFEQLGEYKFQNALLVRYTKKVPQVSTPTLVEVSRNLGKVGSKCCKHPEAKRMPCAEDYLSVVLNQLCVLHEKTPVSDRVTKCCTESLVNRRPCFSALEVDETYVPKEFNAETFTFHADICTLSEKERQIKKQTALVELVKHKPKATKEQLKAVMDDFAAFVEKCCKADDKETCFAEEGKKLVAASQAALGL
A short description of data set [4]: AUC in sc dosed Sprague-Dawley rat. Format: ADME, organism-based. The following applies: in vivo.
Data set [5] is described as follows: Half-life in sc dosed Sprague-Dawley rat. The format is ADME, organism-based. The following applies: in vivo.
Data set [6] deals with T1, Sclerostin. In words: Binding affinity to SOST loop3 (unknown origin) by SPR analysis.

Calls of active or inactive are those of the source. The calls are words filed in the database; no cut-off is given here.

As to `O=C1c2c(O)cc(O)cc2O[C@@H](c2cc(O)c(O)c(O)c2)[C@H]1O`, the dissociation constant (Kd) on Sclerostin [1] is 4780 nM; at Sclerostin [2], 3900 nM.
On to `O=c1ccc2ccccc2o1` [COUMARIN], for which the Kd on Sclerostin [1] is 273 nM; at Sclerostin [2] it was 231 nM.
Turning to `O=C1c2c(O)cc(O)cc2O[C@@H](c2ccc(O)c(O)c2)[C@H]1O` [(+)-EPITAXIFOLIN], the Kd on Sclerostin [1] is 2630 nM.
`CC(=O)NCC#Cc1ccc(C(=O)NCC(=O)O)cc1` gave a Cmax in data set [3] of 5.81 ng/mL. Moreover, the outcome in the data set filed under Homo sapiens was inactive. Moreover, at Albumin, the Activity result is reported as “Not Active”. This compound came in with an AUC in data set [4] of 59.2 ng·h/mL. In data set [5], the half-life is 1.94 h.
As to `Oc1cc(O)c2c(c1)O[C@H](c1ccc(O)c(O)c1)[C@@H](O)C2` [CIANIDANOL], the Kd turned out to be 1580 nM on Sclerostin [1] and 1840 nM on Sclerostin [2].
As to `Nc1nc2c(c(=O)[nH]1)NC(CNc1ccc(C(=O)N[C@@H](CCC(=O)O)C(=O)O)cc1)CN2` (some centres undefined), the values for the Kd on Sclerostin [1] and at Sclerostin [6] were 37.7 nM and 42.4 nM, respectively.

The term Kd denotes the constant that tells how readily two partners part at equilibrium. A higher Kd goes with lower affinity. As usually defined, the Cmax is the highest concentration seen after dosing. Broadly, the AUC is concentration integrated over time. The half-life is how long it takes for the measured level to halve. The low end stands for fast loss, the high end for slow loss.
